The supplement of paper PMC10331698
± gives the standard deviation of the averaged measurements.

Assays:
Experiment in all cases: level (log10 ratio to DMSO vehicle control); higher = higher biomarker level / cell amount than vehicle control
Details in all cases: in DMSO
[1] = compound: O=S(=O)(O)C(F)(F)C(F)(F)C(F)(F)C(F)(F)C(F)(F)C(F)(F)C(F)(F)C(F)(F)F [Potassium perfluorooctanesulfonate]
Procedure: (§1)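 BioMAP Diversity Plus panel of 12 human primary cell co-culture systems (3C, 4H, LPS, SAg, BT, BF4T, BE3C, CASM3C, HDF3CGF, KF3CT, MyoF, Mphg). Compounds were added 1 h before stimulation and left for 24 h (MyoF 48 h; BT 72 h for soluble read-outs or 6 d for IgG). Biomarkers were read by ELISA, cytotoxicity by SRB, PBMC viability and proliferation by Alamar Blue. Each well value was divided by the mean of 8 DMSO control wells on the same plate and log10 transformed; duplicate blinded samples were tested at 4 concentrations.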

[2] = compound: O=C(O)C(F)(F)C(F)(F)C(F)(F)C(F)(F)C(F)(F)C(F)(F)C(F)(F)C(F)(F)C(F)(F)C(F)(F)C(F)(F)C(F)(F)F [Perfluorotridecanoic acid]
Procedure: as §1

[3] = compound: O=C(O)C(F)(F)C(F)(F)C(F)(F)C(F)(F)C(F)(F)F [Perfluorohexanoic acid]
Procedure: as §1

[4] = compound: O=P(O)(O)CCC(F)(F)C(F)(F)C(F)(F)C(F)(F)C(F)(F)C(F)(F)C(F)(F)C(F)(F)F [((Perfluorooctyl)ethyl)phosphonic acid]
Procedure: as §1

[5] = compound: O=S(=O)(O)C(F)(F)C(F)(F)C(F)(F)C(F)(F)C(F)(F)C(F)(F)C(F)(F)C(F)(F)F [Perfluorooctanesulfonic acid]
Procedure: as §1

[6] = compound: CC(C)(C)C(=O)CC(=O)C(F)(F)C(F)(F)C(F)(F)F [(Heptafluorobutanoyl)pivaloylmethane]
Procedure: as §1

| Test System | level (log10) ([1]; 6700 nM) | level (log10) ([1]; 20000 nM) | level (log10) ([1]; 60000 nM) | level (log10) ([2]; 1500 nM) | level (log10) ([2]; 4400 nM) | level (log10) ([2]; 13000 nM) | level (log10) ([2]; 40000 nM) | level (log10) ([3]; 6700 nM) | level (log10) ([3]; 20000 nM) | level (log10) ([3]; 60000 nM) | level (log10) ([4]; 6700 nM) | level (log10) ([4]; 20000 nM) | level (log10) ([4]; 60000 nM) | level (log10) ([5]; 6700 nM) | level (log10) ([5]; 20000 nM) | level (log10) ([5]; 60000 nM) | level (log10) ([6]; 6700 nM) | level (log10) ([6]; 20000 nM) | level (log10) ([6]; 60000 nM) |
| --- | --- | --- | --- | --- | --- | --- | --- | --- | --- | --- | --- | --- | --- | --- | --- | --- | --- | --- | --- |
| SAg:CD40 | -0.005 ± 0.0057 | -0.0205 ± 0.039 | -0.032 ± 0.042 | -0.021 ± 0.017 | -0.071 ± 0.0057 | -0.0705 ± 0.06 | -0.497 ± 0.044 | 0.0065 ± 0.016 | -0.0145 ± 0.012 | -0.0095 ± 0.021 | -0.0305 ± 0.0078 | -0.0405 ± 0.018 | -0.136 ± 0.025 | -0.0165 ± 0.05 | -0.032 ± 0.038 | -0.054 ± 0.013 | -0.0125 ± 0.011 | -0.0335 ± 0.0021 | -0.0515 ± 0.0078 |
| BT:PBMC Cytotoxicity | -0.0055 ± 0.022 | 0.0125 ± 0.033 | 0.097 ± 0.058 | -0.0035 ± 0.00071 | 0.0245 ± 0.005 | 0.018 ± 0.011 | 0.0165 ± 0.029 | -0.024 ± 0.028 | -0.0405 ± 0.028 | 0.004 ± 0.0057 | 0.0055 ± 0.00071 | 0 ± 0.0057 | 0.0095 ± 0.015 | 0.0295 ± 0.0064 | 0.038 ± 0.016 | 0.078 ± 0.047 | 0.0255 ± 0.0035 | -0.019 ± 0.011 | 0.0105 ± 0.042 |
| BE3C:IL-1alpha | 0.022 ± 0.0042 | 0.02 ± 0.0071 | -0.0105 ± 0.03 | 0.027 ± 0.04 | -0.0165 ± 0.0078 | 0.0035 ± 0.023 | 0.024 ± 0.0057 | 0.005 ± 0.0071 | -0.0115 ± 0.0035 | -0.002 ± 0.0042 | -0.017 ± 0.016 | -0.019 ± 0.025 | 0.0085 ± 0.056 | 0.0315 ± 0.023 | 0.0055 ± 0.016 | -0.237 ± 0.2 | -0.0015 ± 0.021 | -0.0035 ± 0.0035 | -0.003 ± 0.021 |
| BF4T:uPA | -0.004 ± 0.0028 | 0.01 ± 0.016 | 0.0395 ± 0.043 | 0.0185 ± 0.018 | 0.011 ± 0.0042 | 0.0095 ± 0.0021 | 0.0155 ± 0.005 | 0.01 ± 0.0028 | 0.004 | 0.0105 ± 0.0078 | 0.008 ± 0.0085 | 0.0185 ± 0.018 | 0.0205 ± 0.057 | 0.0005 ± 0.016 | 0.0175 ± 0.00071 | 0.0375 ± 0.023 | -0.006 ± 0.011 | -0.0085 ± 0.005 | -0.025 ± 0.0014 |
| LPS:CD69 | -0.0315 ± 0.012 | -0.046 ± 0.0057 | -0.0205 ± 0.039 | 0.002 ± 0.034 | -0.0545 ± 0.053 | -0.0455 ± 0.044 | -0.069 ± 0.025 | 0.0025 ± 0.0078 | -0.0165 ± 0.0021 | -0.0295 ± 0.013 | -0.04 ± 0.0042 | -0.032 ± 0.018 | -0.0305 ± 0.023 | -0.018 ± 0.0057 | -0.0385 ± 0.0021 | -0.025 ± 0.014 | 0.0025 ± 0.026 | 0.007 | 0.063 ± 0.018 |
| LPS:CCL2/MCP-1 | 0.0025 ± 0.0021 | 0.007 ± 0.016 | 0.039 ± 0.0057 | 0.005 ± 0.071 | 0.0315 ± 0.032 | 0.0145 ± 0.0078 | 0.0155 ± 0.029 | -0.0035 ± 0.00071 | -0.008 ± 0.027 | -0.0045 ± 0.018 | -0.0075 ± 0.005 | -0.0255 ± 0.0092 | -0.046 ± 0.016 | 0.0025 ± 0.00071 | 0.005 ± 0.021 | 0.0075 ± 0.005 | -0.01 ± 0.0014 | -0.0055 ± 0.018 | 0.001 ± 0.038 |
| 3C:Proliferation | -0.042 ± 0.035 | -0.0165 ± 0.061 | -0.0445 ± 0.0092 | -0.056 ± 0.048 | -0.025 ± 0.0085 | -0.348 ± 0.38 | -0.811 ± 0.1 | -0.0055 ± 0.012 | -0.006 ± 0.0028 | -0.01 ± 0.04 | -0.0505 ± 0.019 | -0.172 ± 0.071 | -0.481 ± 0.18 | 0.0055 ± 0.037 | 0.0115 ± 0.036 | -0.022 ± 0.044 | -0.0155 ± 0.054 | -0.044 ± 0.033 | -0.379 ± 0.24 |
| BF4T:CD54/ICAM-1 | 0.0055 ± 0.032 | 0.0025 ± 0.012 | 0.0215 ± 0.035 | 0.01 ± 0.023 | 0.0115 ± 0.015 | -0.01 ± 0.0028 | 0.0115 ± 0.025 | -0.011 ± 0.0014 | -0.0135 ± 0.0064 | -0.0005 ± 0.0021 | 0.0035 ± 0.029 | 0.001 ± 0.031 | -0.0035 ± 0.046 | -0.0065 ± 0.019 | -0.0115 ± 0.028 | -0.018 ± 0.014 | -0.006 ± 0.0014 | -0.0145 ± 0.005 | -0.0155 ± 0.015 |
| LPS:IL-1alpha | -0.022 ± 0.0014 | -0.0195 ± 0.011 | -0.0145 ± 0.012 | 0.0655 ± 0.088 | -0.0155 ± 0.06 | 0.0405 ± 0.042 | 0.0445 ± 0.018 | 0.0135 ± 0.0064 | 0.0145 ± 0.0092 | -0.003 ± 0.02 | -0.0215 ± 0.043 | -0.0045 ± 0.029 | -0.024 ± 0.13 | 0.0245 ± 0.043 | 0.023 ± 0.04 | 0.0215 ± 0.0021 | 0.0285 ± 0.00071 | 0.0365 ± 0.0021 | 0.0745 ± 0.026 |
| BF4T:CCL26/Eotaxin-3 | -0.0775 ± 0.074 | -0.146 ± 0.056 | -0.126 ± 0.0064 | -0.0035 ± 0.052 | -0.0725 ± 0.022 | -0.089 ± 0.04 | -0.0555 ± 0.026 | 0.0135 ± 0.015 | 0.005 ± 0.024 | 0.0115 ± 0.011 | -0.084 ± 0.0099 | -0.157 ± 0.018 | -0.14 ± 0.056 | -0.0595 ± 0.026 | -0.155 ± 0.0085 | -0.192 ± 0.097 | 0.009 ± 0.048 | -0.0205 ± 0.032 | -0.0065 ± 0.0064 |
| 4H:CD62P/P-selectin | 0.0375 ± 0.015 | 0.085 ± 0.0042 | 0.086 ± 0.027 | -0.0285 ± 0.016 | -0.017 ± 0.0085 | 0.0125 ± 0.013 | 0.021 ± 0.011 | 0.0235 ± 0.064 | 0.0555 ± 0.032 | 0.0255 ± 0.028 | -0.0285 ± 0.019 | -0.0235 ± 0.015 | -0.126 ± 0.022 | 0.0345 ± 0.0078 | 0.061 ± 0.016 | 0.097 ± 0.018 | -0.045 ± 0.089 | -0.032 ± 0.078 | -0.076 ± 0.16 |
| 3C:HLA-DR | 0.0075 ± 0.0092 | 0.0075 ± 0.0021 | 0.0215 ± 0.0064 | -0.011 ± 0.0028 | -0.0135 ± 0.011 | -0.021 ± 0.02 | -0.0095 ± 0.011 | 0.002 ± 0.0042 | 0.004 ± 0.014 | -0.002 ± 0.0085 | 0.005 ± 0.0085 | 0.001 ± 0.0042 | -0.0285 ± 0.023 | 0.0005 ± 0.011 | -0.0095 ± 0.021 | 0.0095 ± 0.023 | -0.0205 ± 0.013 | -0.0285 ± 0.005 | -0.092 ± 0.035 |
| BE3C:CXCL11/I-TAC | -0.002 ± 0.0042 | -0.113 ± 0.012 | -0.203 ± 0.024 | 0.007 ± 0.0014 | -0.048 ± 0.027 | -0.089 ± 0.021 | 0 ± 0.0085 | 0.008 ± 0.014 | 0.0065 ± 0.0064 | 0.027 ± 0.0042 | -0.0285 ± 0.011 | -0.0225 ± 0.0064 | -0.0205 ± 0.0035 | -0.0085 ± 0.00071 | -0.0735 ± 0.028 | -0.555 ± 0.15 | -0.0005 ± 0.04 | 0.01 ± 0.037 | 0.024 ± 0.028 |
| BT:B cell Proliferation | 0.031 ± 0.016 | 0.0425 ± 0.018 | 0.0795 ± 0.005 | -0.0035 ± 0.052 | 0.029 ± 0.016 | 0.01 ± 0.011 | 0.0265 ± 0.035 | -0.047 ± 0.048 | -0.0035 ± 0.042 | 0.0275 ± 0.063 | 0.014 ± 0.021 | -0.0325 ± 0.044 | -0.136 ± 0.058 | 0.0245 ± 0.0092 | 0.0375 ± 0.0092 | 0.0635 ± 0.035 | 0.007 ± 0.0099 | 0.007 ± 0.028 | 0.033 ± 0.0057 |
